Legend:
Assay type in all cases: functional
A498 = assay: Growth inhibition of human A498 cells after 48 hrs by SRB staining method; settings: A498, 48 h
RPMI-8226 = assay: Growth inhibition of human RPMI8226 cells after 48 hrs by SRB staining method; settings: RPMI-8226, 48 h
NCI/ADR-RES = assay: Growth inhibition of human NCI/ADR-RES cells after 48 hrs by SRB staining method
A549 = assay: Growth inhibition of human A549 cells after 48 hrs by SRB staining method; settings: A549, 48 h
DU-145 = assay: Growth inhibition of human DU145 cells after 48 hrs by SRB staining method; settings: DU-145, 48 h
SK-OV-3 = assay: Growth inhibition of human SKOV3 cells after 48 hrs by SRB staining method; settings: SK-OV-3, 48 h
SK-MEL-28 = assay: Growth inhibition of human SK-MEL-28 cells after 48 hrs by SRB staining method; settings: SK-MEL-28, 48 h
UACC-62 = assay: Growth inhibition of human UACC62 cells after 48 hrs by SRB staining method; settings: UACC-62, 48 h
U-251 = assay: Growth inhibition of human U251 cells after 48 hrs by SRB staining method; settings: U-251, 48 h
SN12C = assay: Growth inhibition of human SN12C cells after 48 hrs by SRB staining method
OVCAR-8 = assay: Growth inhibition of human OVCAR8 cells after 48 hrs by SRB staining method; settings: OVCAR-8, 48 h
K562 = assay: Growth inhibition of human K562 cells after 48 hrs by SRB staining method; settings: K562, 48 h
SR = assay: Growth inhibition of human SR cells after 48 hrs by SRB staining method
UO-31 = assay: Growth inhibition of human UO31 cells after 48 hrs by SRB staining method; settings: UO-31, 48 h
EKVX = assay: Growth inhibition of human EKVX cells after 48 hrs by SRB staining method
SK-MEL-5 = assay: Growth inhibition of human SK-MEL-5 cells after 48 hrs by SRB staining method; settings: SK-MEL-5, 48 h
NCI-H522 = assay: Growth inhibition of human NCI-H522 cells after 48 hrs by SRB staining method; settings: NCI-H522, 48 h
SW-620 = assay: Growth inhibition of human SW620 cells after 48 hrs by SRB staining method; settings: SW-620, 48 h
SNB-19 = assay: Growth inhibition of human SNB19 cells after 48 hrs by SRB staining method; settings: SNB-19, 48 h
HCT-15 = assay: Growth inhibition of human HCT15 cells after 48 hrs by SRB staining method; settings: HCT-15, 48 h
HOP-62 = assay: Growth inhibition of human HOP62 cells after 48 hrs by SRB staining method; settings: HOP-62, 48 h
NCI-H226 = assay: Growth inhibition of human NCI-H226 cells after 48 hrs by SRB staining method; settings: NCI-H226, 48 h
SK-MEL-2 = assay: Growth inhibition of human SK-MEL-2 cells after 48 hrs by SRB staining method; settings: SK-MEL-2, 48 h
NCI-H322M = assay: Growth inhibition of human NCI-H322M cells after 48 hrs by SRB staining method
LOX IMVI = assay: Growth inhibition of human LOX IMVI cells after 48 hrs by SRB staining method
NCI-H23 = assay: Growth inhibition of human NCI-H23 cells after 48 hrs by SRB staining method; settings: NCI-H23, 48 h
[1] = Growth inhibition of human HS 578T cells after 48 hrs by SRB staining method
KM12 = assay: Growth inhibition of human KM12 cells after 48 hrs by SRB staining method; settings: KM12, 48 h
786-0 = assay: Growth inhibition of human 786-0 cells after 48 hrs by SRB staining method; settings: 786-0, 48 h
SF-268 = assay: Growth inhibition of human SF268 cells after 48 hrs by SRB staining method; settings: SF-268, 48 h
NCI-H460 = assay: Growth inhibition of human NCI-H460 cells after 48 hrs by SRB staining method; settings: NCI-H460, 48 h
RXF 393 = assay: Growth inhibition of human RXF393 cells after 48 hrs by SRB staining method; settings: RXF 393, 48 h
[2] = read-out: pLC50 (the source's name) (converted)

Nc1cc(N)c2nc(-c3ccccc3)c(Nc3ccc(Cl)c(Cl)c3)nc2c1
GI50 (A498): 12 µM | CC50 (A498; [2]): 57.5 µM | TGI (A498; read-out: pTGI (converted)): 26.3 µM | GI50 (RPMI-8226): 2 µM | CC50 (RPMI-8226; [2]): > 100 µM | TGI (RPMI-8226; read-out: pTGI (converted)): 4.9 µM | GI50 (NCI/ADR-RES): 15.5 µM | CC50 (NCI/ADR-RES; [2]): > 100 µM | TGI (NCI/ADR-RES; read-out: pTGI (converted)): 55 µM | GI50 (A549): 10.7 µM | CC50 (A549; [2]): > 100 µM | TGI (A549; read-out: pTGI (converted)): 34.7 µM | GI50 (DU-145): 16.6 µM | CC50 (DU-145; [2]): 63.1 µM | TGI (DU-145; read-out: pTGI (converted)): 32.4 µM | GI50 (SK-OV-3): 13.8 µM | CC50 (SK-OV-3; [2]): 70.8 µM | TGI (SK-OV-3; read-out: pTGI (converted)): 31.6 µM | GI50 (SK-MEL-28): 16.2 µM | CC50 (SK-MEL-28; [2]): > 100 µM | TGI (SK-MEL-28; read-out: pTGI (converted)): 44.7 µM | GI50 (UACC-62): 13.2 µM | LC50 (UACC-62): 67.6 µM | TGI (UACC-62; read-out: pTGI (converted)): 30.2 µM | GI50 (U-251): 4.68 µM | LC50 (50% lethal concentration) (U-251): > 100 µM | TGI (U-251; read-out: pTGI (converted)): > 100 µM | GI50 (SN12C): 12.6 µM | CC50 (SN12C; [2]): 79.4 µM | TGI (SN12C; read-out: pTGI (converted)): 31.6 µM | GI50 (OVCAR-8): 5.13 µM | CC50 (OVCAR-8; [2]): > 100 µM | TGI (OVCAR-8; read-out: pTGI (converted)): 79.4 µM | GI50 (K562): 3.55 µM | CC50 (K562; [2]): > 100 µM | TGI (K562; read-out: pTGI (converted)): > 100 µM | GI50 (SR): 2.57 µM | CC50 (SR; [2]): > 100 µM | TGI (SR; read-out: pTGI (converted)): 15.5 µM | GI50 (UO-31): 11.2 µM | CC50 (UO-31; [2]): > 100 µM | TGI (UO-31; read-out: pTGI (converted)): 36.3 µM | GI50 (EKVX): 3.8 µM | CC50 (EKVX; [2]): 47.9 µM | TGI (EKVX; read-out: pTGI (converted)): 16.2 µM | GI50 (SK-MEL-5): 11 µM | LC50 (SK-MEL-5): 58.9 µM | TGI (SK-MEL-5; read-out: pTGI (converted)): 25.7 µM | GI50 (NCI-H522): 5.25 µM | LC50 (NCI-H522): 69.2 µM | TGI (NCI-H522; read-out: pTGI (converted)): 21.9 µM | GI50 (SW-620): 13.2 µM | CC50 (SW-620; [2]): > 100 µM | TGI (SW-620; read-out: pTGI (converted)): 51.3 µM | GI50 (SNB-19): 12.9 µM | LC50 (SNB-19): 70.8 µM | TGI (SNB-19; read-out: pTGI (converted)): 30.2 µM | GI50 (HCT-15): 21.4 µM | LC50 (HCT-15): > 100 µM | TGI (HCT-15; read-out: pTGI (converted)): > 100 µM | GI50 (HOP-62): 17.4 µM | LC50 (HOP-62): 81.3 µM | TGI (HOP-62; read-out: pTGI (converted)): 38 µM | GI50 (NCI-H226): 17.4 µM | LC50 (NCI-H226): 81.3 µM | TGI (NCI-H226; read-out: pTGI (converted)): 38 µM | GI50 (SK-MEL-2): 2.34 µM | LC50 (SK-MEL-2): 69.2 µM | TGI (SK-MEL-2; read-out: pTGI (converted)): 19.1 µM | LC50 (NCI-H322M): 63.1 µM | GI50 (LOX IMVI): 4.37 µM | LC50 (LOX IMVI): > 100 µM | TGI (LOX IMVI; read-out: pTGI (converted)): > 100 µM | GI50 (NCI-H23): 19.1 µM | LC50 (NCI-H23): > 100 µM | TGI (NCI-H23; read-out: pTGI (converted)): 55 µM | GI50 [1]: 19.1 µM | CC50 [1, 2]: > 100 µM | TGI ([1]; read-out: pTGI (converted)): 51.3 µM | GI50 (KM12): 5.89 µM | LC50 (KM12): 87.1 µM | TGI (KM12; read-out: pTGI (converted)): 24.5 µM | GI50 (786-0): 14.8 µM | CC50 (786-0; [2]): 93.3 µM | TGI (786-0; read-out: pTGI (converted)): 37.2 µM | GI50 (SF-268): 12 µM | CC50 (SF-268; [2]): 67.6 µM | TGI (SF-268; read-out: pTGI (converted)): 28.8 µM | GI50 (NCI-H460): 1.58 µM | LC50 (concentration killing 50% of cells) (NCI-H460): 56.2 µM | TGI (NCI-H460; read-out: pTGI (converted)): 22.9 µM | GI50 (RXF 393): 6.17 µM | CC50 (RXF 393; [2]): > 100 µM | TGI (RXF 393; read-out: pTGI (converted)): 30.9 µM

— ChEMBL document CHEMBL1149774, “Synthesis of N-(5,7-diamino-3-phenyl-quinoxalin-2-yl)-3,4,5-substituted anilines and N-[4[(5,7-diamino-3-phenylquinoxalin-2-yl)amino]benzoyl]-l-glutamic acid diethyl ester: evaluation of in vitro anti-cancer and anti-folate activities” (Eur J Med Chem, 2008)
